# Laboratory results reported in patent US20160159778A1, “NOVEL UREIDO DERIVATIVES OF NAPHTHALENESULFONIC ACIDS” (NeED PHARMACEUTICALS S.r.l., priority 2013, published 2016).
# Columns and labels:
# Assay type in all cases: cell-based
# [1] = tested on: fusion mediated by gp120 of HIV-1 using CCR5; assay: gp120-mediated cell-cell fusion assay, target cells with CD4 and CCR5 (colorimetric, OD 570 nm); details: target cells 3T3 mouse fibroblasts and HeLa human epithelial cells (FIG. 3 B/D)
# Excerpt: (§1) In order to evaluate on which step of the complex HIV-1 replication cycle the compound VII acts according to the present invention, a sophisticated method, schematized in FIG. 2, has been used, specifically only focusing on the entry step of HIV-1 in target cells.
# (§2) Briefly, a colorimetric reaction is developed when two populations of properly engineered cells meet and in particular a donor, carrying on the surface the glycoprotein of HIV-1 gp120 and a target, together with the primary receptor CD4 and with one of the co-receptors, CXCR4 or CCR5. In this case there is a fusion of the cells and the polymerase T7 can pass from the donor cell to the target one in which it triggers the transcription of beta-galactosidase with subsequent protein translation. Thus the latter is able to perform its enzymatic action in the presence of the convenient substrate (CPRG, chlorophenol red-3-D galactopyranoside) developing a colorimetric reaction measured by detection of optical density (OD) at 570 nm.
# (§3) In the first one, the target cells are mouse fibroblasts (3T3 in FIG. 3 A/B), on the contrary in the second one the target cells are human epithelial cells (HeLa, in FIG. 3 C/D). The graphs show the mean values of the culture triplicate with the standard deviation.
# [2] = tested on: HIV-1 Bal (strain using CCR5); assay: HIV-1 Bal replication in PHA-activated peripheral blood mononuclear cells (p24 in supernatant); details: PBMC
# Protocol: (§4) The compound (VII) has been tested for its ability to modulate the viral replication of HIV-1, both of a strain using CXCR4 (IIIB) and a strain using CCR5 (Bal) as co-receptor, in addition to the primary receptor CD4.
# (§5) For the in-vitro infections primary cells have been used, specifically peripheral blood mononuclear cells from healthy donors pre-activated for 48 hours through a mitogenic stimulus (phytohemagglutinin) to allow for the infection by HIV-1. The cells have been incubated with IIIB and Bal viruses in absence or in presence of scalar concentrations of compound (VII) for 30 minutes at 37° C., then they have been washed to remove the excess virus, plated in triplicate in culture microplates and the compound VII has been re-added to the wells, in the test concentrations. The control culture has been set up in presence of dimethylsulfoxyde (DMSO), the compound in which the compound VII has been dissolved, in order to more correctly evaluate a net effect of the compound. The viral replication has been evaluated by measuring the structural protein of HIV-1 p24 (expressed in ng/ml) by an immune-enzymatic test carried out on the culture supernatants harvested on days 4 and 7 post-infection.
# (§6) The graphs show the mean values of the culture triplicate with the standard deviation on post-infection days 4 and 7.
# [3] = tested on: fusion mediated by gp120 of HIV-1 using CXCR4; assay: gp120-mediated cell-cell fusion assay, target cells with CD4 and CXCR4 (colorimetric, OD 570 nm)
# Excerpt: as §1, §2, §3
# [4] = tested on: HIV-1 IIIB (strain using CXCR4); assay: HIV-1 IIIB replication in PHA-activated peripheral blood mononuclear cells (p24 in supernatant); details: for inhibition of replication of HIV-1 IIIB: PBMC
# Protocol: as §4, §5, §6
# [5] = 0.1 μM, p24 on days 4 and 7 post-infection (FIG. 1C/D)
# [6] = 1 μM, p24 on days 4 and 7 post-infection (FIG. 1C/D)
# [7] = 30, 10 and 3 μM, p24 on days 4 and 7 post-infection (FIG. 1A/B)
compound,measurement,setting,value
Cn1cc(NC(=O)c2cc3cc(NC(=O)Nc4ccc5c(c4)cc(C(=O)Nc4cc(C(=O)Nc6ccc7cc(S(=O)(=O)O)cc(S(=O)(=O)O)c7c6)n(C)c4)n5C)ccc3n2C)cc1C(=O)Nc1ccc2cc(S(=O)(=O)O)cc(S(=O)(=O)O)c2c1 [compound (VII)],inhibition of fusion mediated by gp120 of HIV-1 using CCR5,[1],"able to inhibit, in a way depending on the concentration"
same,inhibition of replication of HIV-1 Bal,[2]; [5],not more effective
same,inhibition of replication of HIV-1 Bal,[2]; [6],almost totally lost the inhibitory ability
same,inhibition of replication of HIV-1 Bal,[2]; [7],completely inhibited
same,"relative potency in fusion inhibition, HIV-1 using CXCR4 versus HIV-1 using CCR5",[3]; comparison of CXCR4 (the latter) with CCR5,more potent against the latter
same,inhibition of fusion mediated by gp120 of HIV-1 using CXCR4,[3]; target cells 3T3 mouse fibroblasts and HeLa human epithelial cells (FIG. 3 A/C),"able to inhibit, in a way depending on the concentration"
same,inhibition of replication of HIV-1 IIIB,[4]; [5],not more effective
same,inhibition of replication of HIV-1 IIIB,[4]; [6],inhibited completely
same,inhibition of replication of HIV-1 IIIB,[4]; [7],completely inhibited
same,"relative effectiveness in replication inhibition, CXCR4-using versus CCR5-using virus",[4]; comparison of IIIB with Bal at 1 μM,higher effectiveness of the compound against viruses using the chemokine receptor CXCR4
